# Measurements taken from PMC10925693, “The Mla system and its role in maintaining outer membrane barrier function in Stenotrophomonas maltophilia” (Frontiers in Cellular and Infection Microbiology, 2024).
# Target: MlaC (Smlt4673) (Stenotrophomonas maltophilia, UniProt B2FP85)
# Assay: MicroScale Thermophoresis (MST), supported by nanoDSF Tm shift
# Assay type: binding
# MlaC (Smlt4673), sequence (B2FP85 entry or part of it): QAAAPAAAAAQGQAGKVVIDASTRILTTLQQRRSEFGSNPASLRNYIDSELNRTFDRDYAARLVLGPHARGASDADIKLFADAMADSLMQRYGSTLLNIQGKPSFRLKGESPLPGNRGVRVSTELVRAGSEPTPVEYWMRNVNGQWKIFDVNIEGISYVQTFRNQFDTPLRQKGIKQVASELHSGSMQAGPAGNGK
structure (smiles),measurement,value
"CCCCCCCCCCCCCC(=O)OC[C@H](COP(=O)(O)OCCN)OC(=O)CCCCCCCCCCCCC [PE14/14, PE C14:0/C14:0]",Kd,795 µM
